Among the data in ChEMBL document CHEMBL5518249, “Structure-Guided Discovery and Preclinical Assessment of Novel (Thiophen-3-yl)aminopyrimidine Derivatives as Potent ERK1/2 Inhibitors” (J Med Chem, 2024) are IC50 and inhibition in vivo values, retold here.

As a reminder, the IC50 is the concentration needed to halve the response being measured.

Assay [1] has as its system RKO. The assay is described as follows: cells. Particulars: Homo sapiens, 24 h.
Description: Antiproliferative activity against human RKO cells assessed as cell viability incubated for 24 hrs by methyl thiazolyl tetrazolium (MTT) assay
Assay [2] concerns MDA-MB-231. The assay is described as follows: cells. Particulars: Homo sapiens, MDA-MB-231, 24 h.
Description: Antiproliferative activity against human MDA-MB-231 cells assessed as cell viability incubated for 24 hrs by methyl thiazolyl tetrazolium (MTT) assay
In assay [3] the target is Mitogen-activated protein kinase 3 (Homo sapiens, UniProt P27361).
Sequence of Mitogen-activated protein kinase 3 (P27361 whole entry): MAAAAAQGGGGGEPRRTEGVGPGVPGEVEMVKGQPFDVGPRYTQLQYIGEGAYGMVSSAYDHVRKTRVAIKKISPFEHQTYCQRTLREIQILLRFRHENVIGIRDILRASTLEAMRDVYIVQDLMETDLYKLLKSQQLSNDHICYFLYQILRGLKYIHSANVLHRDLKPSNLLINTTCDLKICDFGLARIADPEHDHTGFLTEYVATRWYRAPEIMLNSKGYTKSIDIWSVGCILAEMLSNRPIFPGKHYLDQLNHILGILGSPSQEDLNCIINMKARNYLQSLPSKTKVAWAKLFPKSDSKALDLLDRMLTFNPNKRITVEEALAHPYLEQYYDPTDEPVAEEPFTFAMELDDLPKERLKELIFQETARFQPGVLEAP
Description: Inhibition of ERK1 (unknown origin) assessed as luminescence in presence of ATP incubated for 90 mins by ADP-Glo kinase assay
The test system of assay [4] is RKO. The experiment in a line: animal or person. The assay is classed as functional, Homo sapiens. Particulars: Mus musculus, po, 360 h, route ig, time 15 day, read-out: TGI.
Description: In vivo antitumor activity against human RKO cells xenografted in BALB/c mouse model assessed as tumor growth inhibition at 50 mg/kg, IG once daily for 15 days relative to control
Assay [5] relates to MDA-MB-231. The assay is described as follows: animal or person. In kind it is functional, Homo sapiens. Particulars: Mus musculus, MDA-MB-231, po, 360 h, route ig, time 15 day, read-out: TGI.
Description: In vivo antitumor activity against human MDA-MB-231 cells xenografted in BALB/c mouse model assessed as tumor growth inhibition at 50 mg/kg, IG once daily for 15 days relative to control

For `Cn1nccc1Nc1ncc(Cl)c(-c2csc(C(=O)NCc3ccc(Cl)c(F)c3)c2)n1`, the IC50 in assay [1] was 12.6 µM; in assay [2], 11.5 µM.

For the compound `Cn1nccc1Nc1ncc(Cl)c(-c2csc(C(=O)NCc3ccc(C(F)(F)F)cc3)c2)n1`, the IC50 in assay [1] amounted to 41.2 µM; in assay [2], 39.4 µM.

For `Cn1nccc1Nc1ncc(Cl)c(-c2csc(C(=O)NCc3ccccc3F)c2)n1`, the IC50 in assay [1] and in assay [2] was more than 50 µM in each case.

Consider `Cn1nccc1Nc1ncc(Cl)c(-c2csc(C(=O)NCc3ccc(Cl)c(Cl)c3)c2)n1`, for which the IC50 in assay [1] is 10.2 µM; in assay [2], 12.4 µM.

As to `Cn1nccc1Nc1ncc(Cl)c(-c2csc(C(=O)NCc3cccc(C(F)(F)F)c3)c2)n1`, the values for the IC50 in assay [1] and in assay [2] were 24.5 µM and 21.1 µM, respectively.

With `Cc1cnccc1Nc1ncc(Cl)c(-c2csc(C(=O)NCc3ccc(F)c(Cl)c3)c2)n1`, the IC50 in assay [1] amounted to 5.41 µM; in assay [2], 6.26 µM.

`Cn1cc(Nc2ncc(Cl)c(-c3csc(C(=O)NCc4ccc(F)c(Cl)c4)c3)n2)cn1`: the IC50 was 20.2 µM in assay [1] and 36.6 µM in assay [2].

With `Cn1nccc1Nc1ncc(Cl)c(-c2csc(C(=O)NCc3ccc(F)cc3)c2)n1`, the values for the IC50 in assay [1] and in assay [2] were 14.5 µM and 15.8 µM, respectively.

For the compound `Cn1nccc1Nc1ncc(Cl)c(-c2csc(C(=O)NCc3ccccc3Br)c2)n1`, the IC50 in assay [1] and in assay [2] was more than 50 µM in each case.

For the compound `Cn1nccc1Nc1ncc(Cl)c(-c2csc(C(=O)NCCN3CCOCC3)c2)n1`, the IC50 in assay [1] stood at 50.6 µM; in assay [2], 39.4 µM.

`Cn1nccc1Nc1ncc(Cl)c(-c2csc(C(=O)NCc3ccc(F)cc3F)c2)n1`: the IC50 in assay [1] and in assay [2] was more than 50 µM throughout.

With `Cn1ccc(Nc2ncc(Cl)c(-c3csc(C(=O)NCc4ccc(F)c(Cl)c4)c3)n2)n1`, the IC50 in assay [1] was 49.4 µM; in assay [2] it was more than 50 µM.

With `Cn1nccc1Nc1ncc(Cl)c(-c2csc(C(=O)NCc3ccc(Cl)cc3F)c2)n1`, the results for the IC50 in assay [1] and in assay [2] were 39 µM and 48.2 µM, respectively.

On to `Cn1nccc1Nc1ncc(Cl)c(-c2csc(C(=O)NCc3cccc(Br)c3)c2)n1`, for which the half-maximal inhibitory concentration (IC50) in assay [1] and in assay [2] was more than 50 µM each time.

With `Cn1nccc1Nc1ncc(Cl)c(-c2csc(C(=O)NC3CCOCC3)c2)n1`, in assay [3], the IC50 amounted to 0.0254 µM.

On to `Cn1cc(Nc2ncc(Cl)c(-c3csc(C(=O)NCc4ccc(F)c(Cl)c4)c3)n2)c(C(F)(F)F)n1`, for which the IC50 in assay [1] and in assay [2] was more than 50 µM in each case.

`COc1cccc(CNC(=O)c2cc(-c3nc(Nc4ccnn4C)ncc3Cl)cs2)c1`: the 50% inhibitory concentration (IC50) is 33.4 µM in assay [1] and 29.4 µM in assay [2].

Turning to `COc1ccccc1CNC(=O)c1cc(-c2nc(Nc3ccnn3C)ncc2Cl)cs1`, the IC50 in assay [1] and in assay [2] was more than 50 µM in each case.

Turning to `CC(C)Nc1cc(-c2c[nH]c(C(=O)N[C@H](CO)c3cccc(Cl)c3)c2)c(Cl)cn1` [ULIXERTINIB], the inhibition in vivo at 50 mg/kg was 47.4% in assay [4] and 39.3% in assay [5].
